Data reported in US20240382498A1, “NOVEL INHIBITOR OF HYPE-MEDIATED AMPYLATION” (Purdue Research Foundation, priority 2023, published 2024).
Where a chain is given by its changes, count along the chain named. Read-outs that look alike come from different tables or passages of the source.

Legend:
HeLa cells = test: MTT cell viability assay, HeLa; type: cell-based, human; conditions: HeLa, 48 hr
Protocol: The cell lines were procured from ATCC (American Type Culture Collection) and cultured in DMEM (Dulbecco's Modified Eagle Medium) supplemented with 10% FBS (fetal bovine serum) without antibiotics. Cells were grown and maintained in a humidified incubator at 37° C. with 5% CO2. For the MTT assay, cells were trypsinized and harvested at ˜80-90% confluency and seeded in 96 well plates at a density of 1×10^4 cells per well. The seeded cells were incubated overnight and treated with 1 μM, 3 μM, 5 μM, 7 μM, 10 μM, 20 μM, 30 μM or 50 μM (final concentration) of DMSO-dissolved compound for 48 hr. To rule out vehicle induced toxicity, only 0.5% of final DMSO concentration was added to the cells. Post-incubation, the compound treatment was removed and replaced with 0.5 mg/ml (final concentration) of freshly prepared MTT solution. After incubating for 3.5 hr at 37° C., 5% CO2 humidified incubator, MTT was carefully removed without aspirating the formazan crystals and replaced with equivalent volume of DMSO to dissolve the formazan crystals. The plates were then read using a multi-plate reader at 570 nm. The absorbance was recorded and % viability was calculated according to the following equation:
[formula] • where, Abt is the absorbance of compound treated cells and Abc is the absorbance of control cells.

HYPE = conditions: pilot screen of nearly 10,000 compounds; cited from earlier work
[1] = target: T1, IbpA-Fic2 (IbpA-2) AMPylation of Cdc42 (Histophilus somni, UniProt Q06277); test: Radioactive in-gel AMPylation assay with WT IbpA-Fic2, Cdc42 and α-32P-ATP (cross reactivity); type: biochemical; conditions: 10 μM compound, versus DMSO control
T1 construct: a construct solely containing the second of the two domains, IbpA-2; made in house
Protocol: 1 μM of HYPE (final concentration) and (where specified) 5 μM of T229A BiP (final concentration) were preincubated with 10 μM DMSO-dissolved compound (final concentration) or equivalent volume of 100% DMSO at room temperature for 10 min in HTS Buffer. Reactions were run for 10 min at 30° C. and began with the addition of 0.01 μCi/μL α-32P-ATP (final concentration). All reactions were performed according to our previously described protocol for in vitro radioactive AMPylation assays19. Where specified, 5 μM of T229A BiP (final concentration) was added to reactions before the addition of compound.
All bacterial Fic specificity assays were conducted with 1 μM GST-tagged IbpA-Fic2, 5 μM GST-tagged Q61L Cdc42, and 0.01 μCi/μL α-32P-ATP (all final concentrations). All other reaction parameters were kept as per HYPE radiolabeled in-gel AMPylation assays.

WT HYPE = target: T2, WT HYPE (Homo sapiens, UniProt Q9BVA6); test: Fluorescence in-gel autoAMPylation assay with WT HYPE and Fl-ATP; type: biochemical; conditions: 10 μM compound, versus DMSO control
T2 construct: Δ102 (aa 103-458) HYPE constructs (WT, E234G, and E234G/H363A); His6-SUMO (cleaved yes); made in house; host or cells: E. coli BL21-DE3-RILP
T2 sequence (Q9BVA6 103-458): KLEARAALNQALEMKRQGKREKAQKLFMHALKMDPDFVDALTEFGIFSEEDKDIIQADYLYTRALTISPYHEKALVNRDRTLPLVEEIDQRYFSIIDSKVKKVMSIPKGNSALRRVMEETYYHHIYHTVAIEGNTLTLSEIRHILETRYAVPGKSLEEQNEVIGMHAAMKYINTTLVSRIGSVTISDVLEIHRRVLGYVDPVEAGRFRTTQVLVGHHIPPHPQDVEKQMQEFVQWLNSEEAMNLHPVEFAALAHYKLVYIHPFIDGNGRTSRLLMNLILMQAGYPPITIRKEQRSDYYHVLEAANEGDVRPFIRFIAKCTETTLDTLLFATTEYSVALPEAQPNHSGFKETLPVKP
Protocol: 1 μM of WT HYPE (final concentration) was preincubated with 10 μM DMSO-dissolved compound (final concentration) or equivalent volume of 100% DMSO at room temperature for 10 min. Reactions were run for 20 hr at 30° C. in the dark and began with the addition of 1 μM Fl-ATP (final concentration). Alternatively, E234G HYPE AMPylation reactions were run at 10 min due to its hyperactivity. All other parameters were held constant. All reactions were performed HTS Buffer (50 mM HEPES, 1 mM MgCl2, 0.1% Triton X-100, pH 7.50). All reactions were quenched with 4×SDS loading dye, boiled for 5 min at 95° C., and samples were run on 12% SDS-PAGE gels. Gels were imaged on a Typhoon 9500 FLA imager (General Electric) for fluorescence at 473 nm. Imaged gels were then stained with Coomassie Brilliant Blue, destained, and imaged for protein concentration. Where specified, 5 μM of T229A BiP (final concentration) was added to reactions before the addition of compound.

E234G HYPE = target: T3, E234G HYPE (Homo sapiens, UniProt Q9BVA6, E234G); test: Fluorescence polarization (FP) microplate autoAMPylation assay with Fl-ATP, E234G HYPE inhibitor HTS, cherrypick validation and concentration-response; type: biochemical; conditions: for % Inh. Cherry-pick / % Inh. HTS / inhibition at 10 µM: 10 μM compound; for Mean % Inh.: mean of HTS and cherrypick
T3 construct: Δ102 (aa 103-458) HYPE constructs (WT, E234G, and E234G/H363A); His6-SUMO (cleaved yes); made in house; host or cells: E. coli BL21-DE3-RILP
T3 sequence (Q9BVA6 103-458 E234G): T2 sequence (Q9BVA6 103-458) with E132G
Protocol: Buffer optimization experiments were performed by incubating 0.4 μM of Δ102 HYPE enzyme with 25 nM Fl-ATP (final concentrations) in HTS buffer (50 mM HEPES (pH 7.5), 1 mM MgCl2, 0.1% Triton X-100, 1% DMSO) in the dark at room temperature for 10 min in 384-well black bottom, black wall microplates (20 μL reaction volume). Where specified, 1 mM MgCl2 was replaced with an equivalent concentration of MnCl2, or 0.1% Triton X-100 was replaced with 0.05% or 0.01% Trion X-100. Microplates were snap centrifuged at 1000 g for 10 sec. Microplates were loaded onto a BioTek BioStack NEO2 plate-reader and assessed for fluorescence polarization with 485/530 nm filters and a 55/50 gain adjustment.
A Multidrop 384 reagent dispenser (ThermoFisher) was used to add 0.4 μM HYPE, then 25 nM Fl-ATP (final concentrations) to 384-well black/black microplates (20 μL reaction volume). Both enzyme and nucleotide were dissolved in HTS Buffer. AMPylation Reactions were incubated for 10 min at room temperature in the dark. Microplates were snap centrifuged at 1000 g for 10 sec, then transferred to BioTek BioStack NEO2 plate-reader. Reactions were assessed for fluorescence polarization with 485/530 nm filters and a 55/50 gain adjustment. Z′, S/B, and CV values were determined by fitting the data to Eq. 1, 2, and 3, respectively,
An Echo Liquid Handler (Labcyte) was used to transfer 200 nL of DMSO-dissolved compounds via acoustic-coupled ejection from 10 mM source plates into 384-well black, flat-bottom, black-walled microplates, for a final compound concentration of 10 μM. Compounds were sourced from the following libraries: DIVERset (Chembridge), CNS-Set (Chembridge). The compounds went into columns 3-22 of each plate, while columns 1, 2, 23, and 24 were reserved for equivalent volume of 100% DMSO controls.
A Multidrop 384 reagent dispenser was used to pipette 0.4 μM of WT HYPE (final concentration) dissolved in HTS Buffer into columns 1-22 of the activator plates, and columns 1 and 2 of the inhibitor plates as positive controls. 0.4 μM of E234G HYPE was similarly added to columns 3-24 of the inhibitor plates, and columns 23 and 24 of the […]. Enzymes were then incubated with either compounds or DMSO for 10 min at room temperature.
A Multidrop 384 reagent dispenser was used to pipette 25 nM of Fl-ATP (final concentration) into all wells of each plate, giving a final reaction volume of 20 μL. Plates were then incubated for 10 min at room temperature in the dark, followed by a snap centrifugation at 1000 g for 10 sec. Microplates were loaded onto BioTek BioStack stacker and read in succession for fluorescence polarization with 485/530 nm filters and a 55/50 gain adjustment. Fluorescence polarization values were converted to fractional activation (FA) or fractional inhibition FI) values according to Eq. (3) or (4), respectively,
[formula] [formula] • where μp and μn are the means of the positive (E234G HYPE) and negative (WT HYPE) controls, respectively; and x is the measured value of fluorescence polarization.
Microplate “cherrypicking” validations were performed as described above.
A Multidrop 384 reagent dispenser was used to pipette 0.4 μM of WT or E234G HYPE (final concentrations) dissolved in HTS Buffer into designated microplate wells. 10 μM of DMSO-dissolved compounds (final concentrations) or equivalent volume of 100% DMSO were manually pipetted into their specified wells. Enzymes were incubated with compounds or DMSO for 10 min at room temperature. Reagent dispenser was then used to pipette 25 nM of Fl-ATP (final concentration) into each well, followed by a 10 min incubation at room temperature in the dark. Plates were snap centrifuged at 1000 g for 10 sec, then transferred to BioTek BioStack NEO2 plate-reader. Reactions were assessed for fluorescence polarization with 485/530 nm filters and a 55/50 gain adjustment. EC50 and IC50 values were determined by fitting polarization values to Eq. (5) and (6), respectively, […]

[2] = cherrypick validation, same FP assay
[3] = initial HTS, normalized to WT and E234G HYPE DMSO controls
[4] = cherrypick validation, same FP assay, read-out: % Inh. Cherry-pick
[5] = initial HTS, normalized to WT and E234G HYPE DMSO controls, read-out: % Inh. HTS

T1 sequence (Q06277 3640-3777): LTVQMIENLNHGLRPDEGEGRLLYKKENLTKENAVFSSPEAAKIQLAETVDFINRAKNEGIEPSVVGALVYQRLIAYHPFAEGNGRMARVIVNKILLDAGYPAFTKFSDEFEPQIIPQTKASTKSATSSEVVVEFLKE

| Compound | Mean % Inh. (E234G HYPE) | inhibition at 10 µM (E234G HYPE; [4]) | inhibition at 10 µM (E234G HYPE; [5]) | further results |
| --- | --- | --- | --- | --- |
| Clc1ccc(C(c2ccc(Cl)cc2)n2cc[n+](CC(OCc3ccc(Cl)cc3Cl)c3ccc(Cl)cc3Cl)c2)cc1 (stereo not shown) [Compound A1, calmidazolium] |  |  |  | concentration impacting cell viability (HeLa cells): ≤ 1000 nM; effect on HYPE-mediated AMPylation in vitro (HYPE): enhance; effect on IbpA-2 AMPylation of Cdc42 [1]: lack of AMPylation enhancement; activation of WT HYPE autoAMPylation in gel (WT HYPE): bioactive above our DMSO control |
| CCCCn1ccnc1C1CCCN(Cc2ccccn2)C1 (stereo not shown) [Compound I2.1] | 31.1% |  |  | % Inh. Cherry-pick (E234G HYPE; [2]): 29.7%; % Inh. HTS (E234G HYPE; [3]): 32.5% |
| CN(Cc1ccccn1)C(C(=O)O)c1ccc2c(c1)OCO2 (stereo not shown) [Compound I2.2] | 21.5% | 22.7% | 20.3% |  |
| CN(Cc1cccc2cnccc12)C(=O)c1cnc(-c2ccccn2)nc1O [Compound I2.3] | 32.9% |  |  | % Inh. Cherry-pick (E234G HYPE; [2]): 30.7%; % Inh. HTS (E234G HYPE; [3]): 35.0% |
| CCCc1cc(O)n(-c2nc3ccccc3[nH]2)n1 [Compound I2.4] | 29.4% | 31% | 27.8% |  |
| Cc1nn(-c2nc3ccccc3[nH]2)c2c1C(c1ccc(F)cc1F)CC(=O)N2 (stereo not shown) [Compound I2.5] | 28.2% | 32.9% | 23.5% |  |
| Cc1nn(-c2nc3ccccc3[nH]2)c2c1C(c1cc(Br)ccc1F)CC(=O)N2 (stereo not shown) [Compound I2.6] | 31.2% | 29.7% | 32.7% |  |
| O=C1Nc2ccc(Br)cc2C12NN=C(c1ccccc1)S2 (stereo not shown) [Compound I2.7] | 27.6% | 34.2% | 20.9% |  |
| CCc1ccc(N2CC(c3noc(-c4ccc(C#N)cc4)n3)CC2=O)cc1 (stereo not shown) [Compound I2.9] | 27.5% | 27.8% | 27.2% |  |
| Oc1ccc(CN2CCCCC2)c2cccnc12 [Compound I2.11] | 22.3% |  |  | % Inh. Cherry-pick (E234G HYPE; [2]): 24.6%; % Inh. HTS (E234G HYPE; [3]): 19.9% |
| Oc1cc(-c2ccc(F)cc2)nn1-c1nc2ccccc2[nH]1 [Compound I2.12] | 30.4% | 33.6% | 27.1% |  |
